Laboratory results from article PMC5556071, “ATR inhibition facilitates targeting of leukemia dependence on convergent nucleotide biosynthetic pathways” (Nature Communications, 2017).
“And” between values parts separate entries of the source, which are not always exact repeats. Equal values may be shown once.

Test system: CEM cells
Test: Non-targeted LC-MS metabolite profiling: percent [13C6]glucose labeling and relative metabolite levels
Type: cell-based, human
Excerpt: To further investigate the functions of dCK and ATR at the G1/S transition in CEM cells, a non-targeted liquid chromatography mass spectrometry (LC-MS) assay was used to determine the utilization of labeled [^13C6]glucose and [^13C9,^15N3]deoxycytidine, the main substrates for de novo and salvage nucleotide biosynthesis, respectively. Of the 166 metabolites identified in CEM cells treated with VE-822 and/or dCKi, 105 metabolites found in all four treatment groups contained glucose-derived ^13C atoms. […] These metabolites included intermediates such as rUTP, rCTP and rCDP in the de novo dCTP biosynthesis (Fig. 1d). […] However, several deoxyribonucleotides, including dCTP, were below the limit of detection of the non-targeted LC-MS approach, raising the concern that the sensitivity of this assay is not sufficient to measure the contribution of the salvage pathway or the ratio of de novo and salvage biosynthesis to these pools. To address this problem, a newly developed targeted MS assay was developed (Fig. 1e and Supplementary Fig. 3). In this assay, samples containing either extracted dNTPs or hydrolyzed DNA from labeled cells are separated by LC for detection by a triple quadrupole mass spectrometer using multiple reaction monitoring (LC-MS/MS-MRM). The first (Q1) and third (Q3) quadrupoles function as mass filters, while the second (Q2) quadrupole serves as a collision chamber (Fig. 1e). For instance, to profile the biosynthetic composition of deoxycytidine (dC) derived from hydrolyzed DNA or dCTP, an intact, protonated dC ion is selected in Q1, followed by fragmentation of the glycosidic bond, which releases protonated cytosine in Q2, that is filtered in Q3 and detected to generate an ion chromatogram. The peak areas for the ion chromatograms of salvage [^13C9,^15N3]dC (red trace), de novo [^13C5]dC (black trace, from [^13C6]glucose) and unlabeled dC (gray trace) (Fig. 1e) are used to determine the relative contributions of the de novo and salvage routes both to dCTP pools and to DNA-incorporated dCTP.
Cells were transferred into RPMI-1640 without glucose and supplemented with 10% dialyzed FBS (Gibco) containing the following labeled substrates: precursors for de novo [U-^13C6]glucose (Sigma-Aldrich, 389374) at 11 mM; precursors for purine salvage [U-^13C10,^15N5]dA (Cambridge Isotopes, CIL 3896), [^15N5]dA (Cambridge Isotopes, NLM-3895) and [^15N5]dG (Cambridge Isotopes, NLM-3899) at 5 µM or as indicated; and precursors for pyrimidine salvage: [U-^13C9,^15N3]dC (Silantes, 124603602) and [U-^13C10,^15N2]dT (Cambridge Isotopes, CNLM-3902) at 5 µM and [^15N2]orotate (Cambridge Isotopes, NLM-1048) at indicated concentrations. The cells were incubated for 12 h or as indicated before sample collection and processing. […]
Non-targeted LC-MS metabolic assays. 1 x 10^6 cells were washed with ice-cold 150 mM ammonium acetate twice before adding 1 mL of ice-cold 80% methanol with 10 nM norvaline as an internal standard. After vigorous vortexing, samples were centrifuged at maximum speed, the aqueous layer was transferred to a glass vial and the metabolites were dried under vacuum. Metabolites were resuspended in 50 μL 70% acetonitrile (ACN) and 5 μL of this solution used for the mass spectrometer-based analysis. The analysis was performed on a Q Exactive (Thermo Scientific) in polarity-switching mode with positive voltage 4.0 kV and negative voltage 4.0 kV. The mass spectrometer was coupled to an UltiMate 3000RSLC (Thermo Scientific) UHPLC system. Mobile phase A was 5 mM ammonium acetate (NH4AcO), pH 9.9, B was acetonitrile and the separation achieved on a Luna […] NH2 100 A column (150 × 2.0 mm, Phenomenex). The flow was 200 μL/min, and the gradient ran from 15% A to 95% A in 18 min, followed by an isocratic step for 9 min and re-equilibration for 7 min. Metabolites were detected and quantified as area under the curve based on retention time and accurate mass (≤ 3 p.p.m.) using the TraceFinder 3.1 (Thermo Scientific). Relative amounts of […]

[1] = metabolite Gln (KEGG C00064), CEM cells, 12 h following release from G1 arrest, replicates #1-#6, listed as V
[2] = metabolite Glu (KEGG C00025), CEM cells, 12 h following release from G1 arrest, replicates #1-#6, listed as V
[3] = metabolite GlucA (KEGG C00191), CEM cells, 12 h following release from G1 arrest, replicates #1-#6, listed as V
[4] = metabolite Gly (KEGG C00037), CEM cells, 12 h following release from G1 arrest, replicates #1-#6, listed as V
[5] = metabolite Glycerol (KEGG C00116), CEM cells, 12 h following release from G1 arrest, replicates #1-#6, listed as V
[6] = metabolite Glycerol-2-P (KEGG C02979), CEM cells, 12 h following release from G1 arrest, replicates #1-#6, listed as V
[7] = metabolite Glycerol-3-P (KEGG C00093), CEM cells, 12 h following release from G1 arrest, replicates #1-#6, listed as V
[8] = metabolite Homocysteine (KEGG C00155), CEM cells, 12 h following release from G1 arrest, replicates #1-#6, listed as V
[9] = metabolite Hypoxanthine (KEGG C00262), CEM cells, 12 h following release from G1 arrest, replicates #1-#6, listed as V
[10] = metabolite IMP (KEGG C00130), CEM cells, 12 h following release from G1 arrest, replicates #1-#6, listed as V
[11] = metabolite Inosine (KEGG C00294), CEM cells, 12 h following release from G1 arrest, replicates #1-#6, listed as V
[12] = metabolite a-KG (C00026), CEM cells, 12 h following release from G1 arrest, replicates #1-#6, listed as V

For CNCc1ccc(-c2cc(-c3nc(-c4ccc(S(=O)(=O)C(C)C)cc4)cnc3N)on2)cc1 [VE-822], the “Glucose labeling of Gln” value [1] was 0.12% (2×) and 0.11% and 0.10% and 0.14% and 0.13%, the “Relative level of Gln” value [1] was 1.4 and 1.5 (2×) and 1.0 (2×) and 1.1 and the “Glucose labeling of Glu” value [2] was 29.64% and 29.75% and 29.30% and 29.37% and 29.63% and 30.02%. For the same molecule, the “Relative level of Glu” value [2] was 1.1 and 1.0 (2×) and 0.8 and 0.6 (2×), the “Glucose labeling of GlucA” value [3] was 1.00% and 0.54% and 0.16% and 1.19% and 0.18% (2×) and the “Relative level of GlucA” value [3] was 1.5 and 1.3 (2×) and 0.9 and 0.664 and 0.6. The “Glucose labeling of Gly” value [4] was 3.91% and 4.81% and 4.97% and 3.57% and 3.82% and 3.53%, the “Relative level of Gly” value [4] was 1.8 and 1.3 (2×) and 0.853 and 0.8 and 0.846 and the “Glucose labeling of Glycerol” value [5] was 0.0369% (3×) and 0.02% and 0.03% and 0.0184%. The “Relative level of Glycerol” value [5] was 0.6 and 1.0 and 0.643 and 1.2 (2×) and 2.5, the “Glucose labeling of Glycerol-2-P” value [6] was 20.62% and 19.08% and 14.73% and 9.01% and 11.61% and 10.03% and the “Relative level of Glycerol-2-P” value [6] was 2.7 and 1.2 and 1.6 and 1.8 and 0.334 and 0.262. The “Glucose labeling of Glycerol-3-P” value [7] was 13.71% and 13.99% and 13.43% and 15.94% and 16.61% and 16.91%, the “Relative level of Glycerol-3-P” value [7] was 1.3 and 1.4 (2×) and 1.0 (2×) and 0.9 and the “Glucose labeling of HS2O3” value (metabolite HS2O3 (KEGG C00320), CEM cells, 12 h following release from G1 arrest, replicates #1-#6) was 100.00%. The “Relative level of HS2O3” value (metabolite HS2O3 (KEGG C00320), CEM cells, 12 h following release from G1 arrest, replicates #1-#6, listed as V) was 1.2 and 0.9 and 1.0 (3×) and 1.1, the “Glucose labeling of His” value (metabolite His (KEGG C00135), CEM cells, 12 h following release from G1 arrest, replicates #1-#6) was 0.00% and the “Relative level of His” value (metabolite His (KEGG C00135), CEM cells, 12 h following release from G1 arrest, replicates #1-#6, listed as V) was 1.3 and 1.5 and 1.4 and 0.7 and 0.8 (2×). For the same molecule, the “Glucose labeling of Homocysteine” value [8] was 0.000288% and 0.000653% and 0.00102% and 0.000955% and 0.0737% (2×), the “Relative level of Homocysteine” value [8] was 2.9 and 3.8 and 5.4 and 40.5 and 0.9 and 1.3 and the “Glucose labeling of Hypoxanthine” value [9] was 0.12% (2×) and 0.05% and 0.0153% and 0.00222% and 0.0636%. The “Relative level of Hypoxanthine” value [9] was 2.4 and 3.2 and 4.8 and 46.0 and 2.3 and 1.3, the “Glucose labeling of IMP” value [10] was 85.88% and 80.98% and 88.08% and 72.70% and 96.97% and 95.32% and the “Relative level of IMP” value [10] was 2.4 and 1.3 (2×) and 1.7 and 0.4 (2×). For the same molecule, the “Glucose labeling of Inosine” value [11] was 46.28% and 0.55% and 45.89% and 28.71% and 31.06% and 6.95%, the “Relative level of Inosine” value [11] was 1.9 and 1.5 and 4.0 and 5.0 and 1.2 and 4.1 and the “Glucose labeling of Inositol” value (metabolite Inositol (KEGG C00137), CEM cells, 12 h following release from G1 arrest, replicates #1-#6) was 0.00%. For the same molecule, the “Relative level of Inositol” value (metabolite Inositol (KEGG C00137), CEM cells, 12 h following release from G1 arrest, replicates #1-#6, listed as V) was 1.2 and 1.3 (2×) and 1.0 (3×), the “Glucose labeling of Isocaproate” value (metabolite Isocaproate (X00005), CEM cells, 12 h following release from G1 arrest, replicates #1-#6) was 0.00% and the “Relative level of Isocaproate” value (metabolite Isocaproate (X00005), CEM cells, 12 h following release from G1 arrest, replicates #1-#6, listed as V) was 0.949 and 1.1 and 1.2 and 0.9 and 1.0 and 0.7. The “Glucose labeling, a-KG” value [12] was 12.64% and 3.49% and 7.53% and 10.05% and 2.98% and 1.28%, the “Relative level, a-KG” value [12] was 1.7 and 0.7 and 1.0 and 0.9 and 0.3 and 0.255 and the “decrease of glucose labeling of orotidine monophosphate (OMP)” value (non-targeted LC-MS analysis) was 30%.
